Measured values as given in patent US8273774B2, “Phenoxypyridinylamide compounds” (AstraZeneca AB, priority 2008, dated 2012).
Where a name gives a salt, the structure may show the parent alone.

Target: recombinant Human Phosphodiesterase B2 (PDE4B2) (Homo sapiens, UniProt Q07343)
Assay: Human Phosphodiesterase B2 Radiometric Assay
Assay type: biochemical
Conditions: 0.1 μg/mL recombinant PDE4B2; preincubated at 30 C for 30 min; [3H]cyclic AMP 8 nM, stopped after 20 min; yttrium silicate SPA beads; read-out: PDE4B2 pIC50 (converted)
Procedure: Human Phosphodiesterase B2 Radiometric Assay
The assay uses recombinant Human Phosphodiesterase B2 (PDE4B2) produced in house (PrAZL0163), stored at −20° C. This assay is based on the observation that 5′AMP, the product of the reaction catalysed by PDE4, binds preferentially to yttrium silicate SPA beads (Amersham Biosciences, UK) compared to the substrate, cAMP. Compounds at the appropriate concentration were preincubated at 30 C for 30 min with an assay buffer containing 50 mM HEPES (pH 7.5), 8.3 mM MgCl2, 1.7 mM EGTA, 0.01% (w/v) Brij®35 and 0.1 μg/mL recombinant PDE4B2. The reaction was started by the addition of [3H]cyclic AMP to give a final concentration of 8 nM, and was stopped 20 min after the addition of the substrate by the addition of yttrium silicate SPA beads containing 18 mM Zn SO4. Bound […] was measured using a Topcount NXT (Packard Bioscience, UK). pIC50 values (presented in Table 2) were determined using Xlfit3 curve fitting, using model 205.

recombinant Human Phosphodiesterase B2 (PDE4B2), sequence (Q07343 1-564 isoform Q07343-2): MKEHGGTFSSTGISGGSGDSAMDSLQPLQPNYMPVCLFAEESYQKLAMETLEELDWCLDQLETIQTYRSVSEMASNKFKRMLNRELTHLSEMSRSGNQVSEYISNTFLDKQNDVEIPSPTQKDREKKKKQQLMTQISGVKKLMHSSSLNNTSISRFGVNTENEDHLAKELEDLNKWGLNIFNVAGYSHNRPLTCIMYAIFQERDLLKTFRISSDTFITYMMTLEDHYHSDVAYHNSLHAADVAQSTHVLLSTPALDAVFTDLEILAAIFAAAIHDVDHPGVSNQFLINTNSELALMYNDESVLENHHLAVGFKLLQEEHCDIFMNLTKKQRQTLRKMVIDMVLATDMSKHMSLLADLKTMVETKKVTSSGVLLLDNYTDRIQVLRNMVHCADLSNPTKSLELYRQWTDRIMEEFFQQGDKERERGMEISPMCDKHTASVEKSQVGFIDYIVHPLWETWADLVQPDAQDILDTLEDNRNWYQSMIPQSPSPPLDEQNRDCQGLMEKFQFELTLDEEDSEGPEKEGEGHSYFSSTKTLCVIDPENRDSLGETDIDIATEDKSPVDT

Row | SMILES | IC50
1 | Cc1cc(C(=O)N[C@H]2CC[C@@H](NC(=O)c3cc(F)cnc3Oc3cccc(-c4ccc(CN5CCN(C(C)C)CC5)cc4CN4CCOCC4)c3)CC2)nn1C [Example 183, N-((1s,4s)-4-(1,5-Dimethyl-1H-pyrazole-3-carboxamido)cyclohexyl)-5-fluoro-2-(4′-((4-isopropylpiperazin-1-yl)methyl)-2′-(morpholinomethyl)biphenyl-3-yloxy)nicotinamide] | 200 pM
2 | Cn1nc(C(=O)N[C@H]2CC[C@@H](NC(=O)c3cc(F)cnc3Oc3cccc(-c4ccc(CCN5CCNCC5)cc4)c3)CC2)cc1C(F)(F)F [Example 176, 5-Fluoro-N-((1s,4s)-4-(1-methyl-5-(trifluoromethyl)-1H-pyrazole-3-carboxamido)cyclohexyl)-2-(4′-(2-(piperazin-1-yl)ethyl)biphenyl-3-yloxy)nicotinamide] | 50.1 pM
3 | CN(C)CCN(C)Cc1ccc(-c2cccc(Oc3ncc(F)cc3C(=O)N[C@H]3CC[C@@H](NC(=O)c4cc5n(n4)CCCC5)CC3)c2)cc1 [Example 110, N-((1s,4s)-4-(2-(4′-(((2-(dimethylamino)ethyl)(methyl)amino)methyl)biphenyl-3-yloxy)-5-fluoronicotinamido)cyclohexyl)-4,5,6,7-tetrahydropyrazolo[1,5-a]pyridine-2-carboxamide hydrochloride] | 200 pM
4 | CCc1nc(C(=O)N[C@H]2CC[C@@H](NC(=O)c3cc(F)cnc3Oc3cccc(-c4ccc(CN5C[C@@H](C)N[C@@H](C)C5)cc4)c3)CC2)cs1 [Example 76, N-((1s,4s)-4-(2-(4′-(((3S,5R)-3,5-dimethylpiperazin-1-yl)methyl)biphenyl-3-yloxy)-5-fluoronicotinamido)cyclohexyl)-2-ethylthiazole-4-carboxamide] | 63.1 pM
5 | Cc1cccc(CN[C@H]2CC[C@@H](NC(=O)c3cc(F)cnc3Oc3cccc(-c4ccc(O)cc4CN4CCOCC4)c3)CC2)n1 [Example 6, 5-fluoro-2-(4′-hydroxy-2′-(morpholinomethyl)biphenyl-3-yloxy)-N-((1s,4s)-4-((6-methylpyridin-2-yl)methylamino)cyclohexyl)nicotinamide] | 3160 pM
6 | C[C@@H]1CN(Cc2cc(-c3cccc(Oc4ncc(F)cc4C(=O)N[C@H]4CC[C@@H](NC(=O)c5cccc6[nH]cnc56)CC4)c3)ccc2O)C[C@H](C)N1 [Example 94, N-((1s,4s)-4-(2-(3′-(((3S,5R)-3,5-dimethylpiperazin-1-yl)methyl)-4′-hydroxybiphenyl-3-yloxy)-5-fluoronicotinamido)cyclohexyl)-1H-benzo[d]imidazole-4-carboxamide] | 63.1 pM
7 | CN(C)Cc1cc(O)ccc1-c1cccc(Oc2ncc(F)cc2C(=O)N[C@H]2CC[C@@H](NC(=O)c3cn4cc(F)ccc4n3)CC2)c1 [Example 12, N-((1s,4s)-4-(2-(2′-((dimethylamino)methyl)-4′-hydroxybiphenyl-3-yloxy)-5-fluoronicotinamido)cyclohexyl)-6-fluoroimidazo[1,2-a]pyridine-2-carboxamide] | 50.1 pM
8 | Cc1cc(C(=O)N[C@H]2CC[C@@H](NC(=O)c3cc(F)cnc3Oc3cccc(-c4ccc(CCCN5C[C@@H](C)N[C@@H](C)C5)cc4)c3)CC2)nn1C [Example 81, N-((1s,4s)-4-(1,5-dimethyl-1H-pyrazole-3-carboxamido)cyclohexyl)-2-(4′-(3-((3S,5R)-3,5-dimethylpiperazin-1-yl)propyl)biphenyl-3-yloxy)-5-fluoronicotinamide] | 31.6 pM
9 | Cc1cccc2nc(C(=O)N[C@H]3CC[C@@H](NC(=O)c4cc(F)cnc4Oc4cccc(-c5ccc(CCCN6CCNCC6)cc5)c4)CC3)cn12 [Example 93, N-((1s,4s)-4-(5-fluoro-2-(4′-(3-(piperazin-1-yl)propyl)biphenyl-3-yloxy)nicotinamido)cyclohexyl)-5-methylimidazo[1,2-a]pyridine-2-carboxamide] | 100 pM
10 | O=C(N[C@H]1CC[C@@H](NC(=O)c2cc(F)cnc2Oc2cccc(-c3ccc(CNCCCN4CCOCC4)cc3)c2)CC1)c1cn2cc(F)ccc2n1 [Example 115, 6-fluoro-N-((1s,4s)-4-(5-fluoro-2-(4′-((3-morpholinopropylamino)methyl)biphenyl-3-yloxy)nicotinamido)cyclohexyl)imidazo[1,2-a]pyridine-2-carboxamide] | 631 pM
11 | Cc1cc(C(=O)N[C@H]2CC[C@@H](NC(=O)c3cc(F)cnc3Oc3cccc(-c4ccc(O)cc4CN4CCSCC4)c3)CC2)nn1C [Example 22, N-((1s,4s)-4-(1,5-dimethyl-1H-pyrazole-3-carboxamido)cyclohexyl)-5-fluoro-2-(4′-hydroxy-2′-(thiomorpholinomethyl)biphenyl-3-yloxy)nicotinamide] | 39.8 pM
12 | C[C@@H]1CN(CCCc2ccc(-c3cccc(Oc4ncc(F)cc4C(=O)N[C@H]4CC[C@@H](NC(=O)c5cn6c(n5)CCCC6)CC4)c3)cc2)C[C@H](C)N1 [Example 104, N-((1s,4s)-4-(2-(4′-(3-((3S,5R)-3,5-dimethylpiperazin-1-yl)propyl)biphenyl-3-yloxy)-5-fluoronicotinamido)cyclohexyl)-5,6,7,8-tetrahydroimidazo[1,2-a]pyridine-2-carboxamide] | 31.6 pM
13 | C[C@@H]1CN(Cc2cc(-c3cccc(Oc4ncc(F)cc4C(=O)N[C@H]4CC[C@@H](NC(=O)c5cnn6cccnc56)CC4)c3)ccc2O)C[C@H](C)N1 [Example 125, N-((1s,4s)-4-(2-(3′-(((3S,5R)-3,5-dimethylpiperazin-1-yl)methyl)-4′-hydroxybiphenyl-3-yloxy)-5-fluoronicotinamido)cyclohexyl)pyrazolo[1,5-a]pyrimidine-3-carboxamide] | 63.1 pM
14 | O=C(N[C@H]1CC[C@@H](NC(=O)c2cc(F)cnc2Oc2cccc(-c3ccc(O)cc3CN3CCOCC3)c2)CC1)c1cccc(O)c1 [Example 32, 5-fluoro-2-(4′-hydroxy-2′-(morpholinomethyl)biphenyl-3-yloxy)-N-((1s,4s)-4-(3-hydroxybenzamido)cyclohexyl)nicotinamide] | 316 pM
15 | Cc1nc(C(=O)N[C@H]2CC[C@@H](NC(=O)c3cc(F)cnc3Oc3cccc(-c4ccc(CN5CCCN(C)CC5)cc4)c3)CC2)cs1 [Example 60, N-((1s,4s)-4-(5-fluoro-2-(4′-((4-methyl-1,4-diazepan-1-yl)methyl)biphenyl-3-yloxy)nicotinamido)cyclohexyl)-2-methylthiazole-4-carboxamide] | 50.1 pM
16 | O=C(N[C@H]1CC[C@@H](NC(=O)c2cc(F)cnc2Oc2cccc(-c3ccc(CCCN4CCNCC4)cc3)c2)CC1)c1cn2c(n1)CCCC2 [Example 137, N-((1s,4s)-4-(5-fluoro-2-(4′-(3-(piperazin-1-yl)propyl)biphenyl-3-yloxy)nicotinamido)cyclohexyl)-5,6,7,8-tetrahydroimidazo[1,2-a]pyridine-2-carboxamide] | 50.1 pM
17 | Cc1cc(C)n2ncc(C(=O)N[C@H]3CC[C@@H](NC(=O)c4cc(F)cnc4Oc4cccc(-c5ccc(CN6CCN(CC(=O)NC(C)C)CC6)cc5CN5CCOCC5)c4)CC3)c2n1 [Example 178, N-((1s,4s)-4-(5-Fluoro-2-(4′-((4-(2-(isopropylamino)-2-oxoethyl)piperazin-1-yl)methyl)-2′-(morpholinomethyl)biphenyl-3-yloxy)nicotinamido)cyclohexyl)-5,7-dimethylpyrazolo[1,5-a]pyrimidine-3-carboxamide] | 39.8 pM
